# Measurements from patent US7763638B2, “Substituted 1,2,3,4-tetrahydroisoquinoline derivatives” (Actelion Pharmaceuticals Ltd., priority 2004, dated 2010).
# pIC50: −log10 of the molar value.
# What was measured:
# [1] = tested on: male Wistar rats; test: Spontaneous home cage activity and body temperature measured by radiotelemetry; assay type: in vivo, rat; details: oral administration, home cage activity by telemetry
# Excerpt: In Vivo Assay: Spontaneous Home Cage Activity and Body Temperature Measured by Radiotelemetry in Laboratory Rats:
# The objective of the present test is to record the circadian behavioral activity of rats after oral administration of a compound according to general formula (I) of the invention.
# Decreased home cage activity measured by telemetry in male Wistar rats was considered as an indication for sleep-inducing potential of a restricted number of highly optimized 1,2,3,4-tetrahydroisoquinoline derivatives.
# Psychotropic drugs such as antidepressants, antipsychotics, sleep inducers or psychostimulants are well known to reduce or enhance home cage activity and body temperature following oral administration to laboratory animals. Thermoregulation is a complex process that contributes to homeostasis by coordinating metabolism, energy balance and behaviour. Body temperature changes with circadian behavioural activity and increases when locomotion increases. These two parameters were measured by telemetry in conscious freely moving Wistar rats. Anaesthetized animals were implanted, under aseptic conditions, with a body temperature/activity telemetric device into the peritoneal cavity. More than two weeks after the implantation of the telemetry system, data were collected at 5 minutes intervals during 96 hours. Hourly means were calculated for each rat. The first 48 h were used as an internal control trace and drug effects were compared to vehicle placebo. This method is validated pharmacologically by measuring amplitude and time course of both hypoactivity and hypothermia induced by GABA-A receptor modulators such as zolpidem.
# [2] = molecular target: T1, CYP3A4 (Homo sapiens, UniProt P08684); test: Inhibitory potency against CYPs in human liver microsomes; assay type: in vitro ADME; details: human liver microsomes 0.25 mg/ml, midazolam (5 μM) 1'-hydroxylation, 5 min
# T1 construct: performed using human liver microsomes (pool of 10 individuals); from tissue; host or cells: human liver microsomes, pool of 10 individuals
# Method: Measurements of the Inhibitory Potency Against Different CYPs:
# The CYP inhibition studies are performed using human liver microsomes (pool of 10 individuals), literature-established CYP isoform-selective substrates and quantification by either LC-MS/MS (for CYP3A4 and CYP2C9) or conventional HPLC with fluorimetric detection (for CYP2D6). The specific probes were midazolam 1′-hydroxylation for CYP3A4, dextromethorphan 3-hydroxylation for CYP2D6 and diclofenac 4′-hydroxylation for CYP2C9. […] Controls (sulfaphenazole for CYP2C9, fluoxetine for CYP2D6, and nicardipine for CYP3A4) were run in parallel in each plate.
# T1 sequence (P08684 whole entry): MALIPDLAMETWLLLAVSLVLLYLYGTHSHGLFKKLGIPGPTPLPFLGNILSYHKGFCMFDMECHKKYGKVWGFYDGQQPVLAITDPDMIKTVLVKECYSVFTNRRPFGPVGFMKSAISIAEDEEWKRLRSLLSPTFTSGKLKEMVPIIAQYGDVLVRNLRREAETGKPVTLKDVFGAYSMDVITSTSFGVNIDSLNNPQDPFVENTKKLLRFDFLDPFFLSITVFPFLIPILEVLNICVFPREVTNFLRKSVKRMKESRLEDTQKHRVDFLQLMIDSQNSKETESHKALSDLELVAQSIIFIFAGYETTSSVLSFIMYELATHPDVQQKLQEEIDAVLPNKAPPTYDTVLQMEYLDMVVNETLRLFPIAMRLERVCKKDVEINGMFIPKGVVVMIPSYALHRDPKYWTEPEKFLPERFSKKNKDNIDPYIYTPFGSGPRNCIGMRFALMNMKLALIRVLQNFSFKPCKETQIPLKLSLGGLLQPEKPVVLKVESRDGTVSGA
pIC50 [2],Compound,p.o activity [1]
,"CNC(=O)[C@@H](c1ccccc1)N1CCc2cc(OC)c(OC)cc2[C@@H]1CCc1ccc(C(F)(F)F)cc1 [Example 2, (2R)-2-{(1S)-6,7-dimethoxy-1-[2-(4-trifluoromethyl-phenyl)-ethyl]-3,4-dihydro-1H-isoquinolin-2-yl}-N-methyl-2-phenyl-acetamide]",yes
,"CNC(=O)C(c1ccccc1)N1CCc2cc(OC)c(OC)cc2C1CCc1ccc(C(F)(F)F)cc1 (mixture of isomers) [Example 1, 2-{6,7-dimethoxy-1-[2-(4-trifluoromethyl-phenyl)-ethyl]-3,4-dihydro-1H-isoquinolin-2-yl}-N-methyl-2-phenyl-acetamide]",yes
4.74,"CNC(=O)C(c1ccccc1)N1CCc2cc(OC)c(OC)cc2C1CCc1ccc(C(F)(F)F)nc1 (stereo not drawn) [Example 3, 2-{6,7-dimethoxy-1-[2-(6-trifluoromethyl-pyridin-3-yl)-ethyl]-3,4-dihydro-1H-isoquinolin-2-yl}-N-methyl-2-phenyl-acetamide]",yes
4.30,"CNC(=O)[C@@H](c1ccccc1)N1CCc2cc(OC)c(OC)cc2[C@@H]1CCc1ccc(C(F)(F)F)nc1 [Example 4, (2R)-2-{(1S)-6,7-dimethoxy-1-[2-(6-trifluoromethyl-pyridin-3-yl)-ethyl]-3,4-dihydro-1H-isoquinolin-2-yl}-N-methyl-2-phenyl-acetamide]",yes
